Structures can show the parent of a compound that is named as a salt. Where two headings read alike, the source gives them in different places.
Assays:
[1] = target: T1, SARS-CoV-2 PLpro (nsp3 1564–1878) (Severe acute respiratory syndrome coronavirus 2, UniProt P0DTD1); assay: biochemical; parameters: FRET-quenched peptide (Pro3) cleavage by PLpro, 10 min pre-incubation, slope over 20 min, normalised to no-compound control; conditions: low concentration screen, read-out: % of control remaining
[2] = target: T1, SARS-CoV-2 PLpro (nsp3 1564–1878); assay: biochemical; parameters: FRET-quenched peptide (Pro3) cleavage by PLpro, 10 min pre-incubation, slope over 20 min, normalised to no-compound control; conditions: high concentration screen, read-out: % of control remaining

COc1cccc(-c2cc(=O)c3ccccc3o2)c1N [PD 98,059]
remaining activity at 1.25 µM ([1]; Well no.=1457): 94.9% | remaining activity at 3.75 µM ([2]; Well no.=1457): 95.8%

CCCCCCCC/C=C/CCCCCCCC(=O)O [Elaidic acid]
remaining activity at 1.25 µM ([1]; Well no.=7259): 96% | remaining activity at 3.75 µM ([2]; Well no.=7259): 87.3%

CC(=O)N[C@@H](CCCN)C(=O)O [N-Acetylornithine]
remaining activity at 1.25 µM ([1]; Well no.=7731): 102% | remaining activity at 1.25 µM ([1]; Well no.=8748): 99.4% | remaining activity at 3.75 µM ([2]; Well no.=7731): 104% | remaining activity at 3.75 µM ([2]; Well no.=8748): 98.7%

N[C@@H](CCC(=O)O)C(=O)O [L-Glutamic acid monosodium salt]
remaining activity at 1.25 µM ([1]; Well no.=8573): 103% | remaining activity at 3.75 µM ([2]; Well no.=8573): 106%

COC1=C[C@@H]2[C@@H]3Cc4ccc(OC)c(O)c4[C@]2(CCN3C)CC1=O [Sinomenine]
remaining activity at 1.25 µM ([1]; Well no.=3757): 97.3% | remaining activity at 3.75 µM ([2]; Well no.=3757): 98.8%

Cc1ccc(F)c(NC(=O)Nc2ccc(-c3cccc4[nH]nc(N)c34)cc2)c1 [ABT-869]
remaining activity at 1.25 µM ([1]; Well no.=2740): 94.6% | remaining activity at 3.75 µM ([2]; Well no.=2740): 93.3%

CC(=O)O[C@H]1C[C@@H]2CC[C@@H]3[C@H](CC[C@@]4(C)[C@H]3C[C@H]([N+]3(C)CCCCC3)[C@@H]4OC(C)=O)[C@@]2(C)C[C@@H]1[N+]1(C)CCCCC1 [Pancuronium bromide]
remaining activity at 1.25 µM ([1]; Well no.=808): 98.5% | remaining activity at 3.75 µM ([2]; Well no.=808): 97.8%

N=C(N)NCCC[C@@H](NC(=O)[C@@H]1CCCN1C(=O)[C@@H]1CSSCCC(=O)N[C@@H](Cc2ccc(O)cc2)C(=O)N[C@@H](Cc2ccccc2)C(=O)N[C@@H](CCC(N)=O)C(=O)N[C@@H](CC(N)=O)C(=O)N1)C(=O)NCC(N)=O [Desmopressin (Acetate)]
remaining activity at 1.25 µM ([1]; Well no.=8153): 103% | remaining activity at 3.75 µM ([2]; Well no.=8153): 96.9%

Nc1ncnc2c1ncn2C1CCCO1 (centres unmarked) [SQ 22536]
remaining activity at 1.25 µM ([1]; Well no.=1517): 98.3% | remaining activity at 3.75 µM ([2]; Well no.=1517): 99.9%

COCCc1ccc(OCC(O)CNC(C)C)cc1 (centres unmarked) [Metoprolol]
remaining activity at 1.25 µM ([1]; Well no.=1959): 102% | remaining activity at 3.75 µM ([2]; Well no.=1959): 102%

CCN(CC)C(=O)/C(C#N)=C/c1cc(O)c(O)c([N+](=O)[O-])c1 [Entacapone]
remaining activity at 1.25 µM ([1]; Well no.=1888): 96.2% | remaining activity at 3.75 µM ([2]; Well no.=1888): 93%

CO/N=C(\C(=O)N[C@@H]1C(=O)N2C(C(=O)O)=C(CSc3nc(=O)c(O)nn3C)CS[C@H]12)c1csc(N)n1 [Ceftriaxone sodium]
remaining activity at 1.25 µM ([1]; Well no.=132): 105% | remaining activity at 3.75 µM ([2]; Well no.=132): 105%

COc1ccc(C(C)=O)c(O)c1 [Paeonol]
remaining activity at 1.25 µM ([1]; Well no.=4045): 100% | remaining activity at 1.25 µM ([1]; Well no.=8194): 105% | remaining activity at 3.75 µM ([2]; Well no.=4045): 101% | remaining activity at 3.75 µM ([2]; Well no.=8194): 102%

C#CCOC(=O)C1=CCCN(C)C1 [Arecaidine propargyl ester hydrobromide]
remaining activity at 1.25 µM ([1]; Well no.=254): 97.1% | remaining activity at 3.75 µM ([2]; Well no.=254): 98.4%

O=Nc1ccc2oc(=O)ccc2c1 [6-Nitroso-1,2-benzopyrone]
remaining activity at 1.25 µM ([1]; Well no.=1099): 95.7% | remaining activity at 3.75 µM ([2]; Well no.=1099): 104%

COc1ccc(-c2oc3c(CC=C(C)C)c(O[C@@H]4O[C@H](CO)[C@@H](O)[C@H](O)[C@H]4O)cc(O)c3c(=O)c2O[C@@H]2O[C@@H](C)[C@H](O)[C@@H](O)[C@H]2O)cc1 [Icariin]
remaining activity at 1.25 µM ([1]; Well no.=5200): 99.9% | remaining activity at 3.75 µM ([2]; Well no.=5200): 100%

O=C(O)c1cc2cc(F)ccc2[nH]1 [5-Fluoroindole-2-carboxylic acid]
remaining activity at 1.25 µM ([1]; Well no.=339): 99.4% | remaining activity at 3.75 µM ([2]; Well no.=339): 97.9%

CN1CCN2c3ccccc3Cc3ccccc3C2C1 (centres unmarked) [Mianserin (hydrochloride)]
remaining activity at 1.25 µM ([1]; Well no.=7477): 105% | remaining activity at 3.75 µM ([2]; Well no.=7477): 96.9%

CCOc1ccc2c(c1)C(C)=CC(C)(C)N2 [Ethoxyquin]
remaining activity at 1.25 µM ([1]; Well no.=4145): 93.7% | remaining activity at 3.75 µM ([2]; Well no.=4145): 96.9%

O=c1cc(N2CCOCC2)oc2c1ccc1ccccc12 [NU 7026 - 2-(4-Morpholinyl)-4H-naphthol[1,2-b]pyran-4-one]
remaining activity at 1.25 µM ([1]; Well no.=2630): 92.2% | remaining activity at 3.75 µM ([2]; Well no.=2630): 92.6%

COc1cnc(-n2cnc(C)n2)c2c1c(C(=O)C(=O)N1CCN(C(=O)c3ccccc3)CC1)cn2COP(=O)(O)O [Fostemsavir]
remaining activity at 1.25 µM ([1]; Well no.=7748): 101% | remaining activity at 3.75 µM ([2]; Well no.=7748): 102%

CN1CCN(c2ccc3nc(-c4c(N)c5c(F)cccc5[nH]c4=O)[nH]c3c2)CC1 [CHIR-258]
remaining activity at 1.25 µM ([1]; Well no.=2757): 96.4% | remaining activity at 3.75 µM ([2]; Well no.=2757): 95.3%

Cc1sc2c(c1C)C(c1ccc(Cl)cc1)=N[C@@H](CC(N)=O)c1nnc(C)n1-2 [CPI203]
remaining activity at 1.25 µM ([1]; Well no.=5824): 99.9% | remaining activity at 3.75 µM ([2]; Well no.=5824): 98%

O=C(NCCCN1CCOCC1)c1cnn2c(-c3ccccc3)cc(-c3ccccc3)nc12 [Reversan]
remaining activity at 1.25 µM ([1]; Well no.=5656): 96.9% | remaining activity at 3.75 µM ([2]; Well no.=5656): 98.2%

COc1ccc(C(=O)Nc2sc3c(c2C(N)=O)CCCC3)cc1OC [Flt-3 Inhibitor]
remaining activity at 1.25 µM ([1]; Well no.=2407): 105% | remaining activity at 3.75 µM ([2]; Well no.=2407): 105%

CC(N)C12CC3CC(CC(C3)C1)C2 (centres unmarked) [Rimantadine]
remaining activity at 1.25 µM ([1]; Well no.=2203): 99.7% | remaining activity at 3.75 µM ([2]; Well no.=2203): 99.8%

N[C@@H](CSCCB(O)O)C(=O)O [BEC (hydrochloride)]
remaining activity at 1.25 µM ([1]; Well no.=8165): 105% | remaining activity at 3.75 µM ([2]; Well no.=8165): 103%

N=C(N)Nc1ccc(C(=O)Oc2ccc3cc(C(=N)N)ccc3c2)cc1 [Nafamostat mesylate]
remaining activity at 1.25 µM ([1]; Well no.=4809): 104% | remaining activity at 3.75 µM ([2]; Well no.=4809): 104%

O=C(O)C1CCCNC1 (racemic)
remaining activity at 1.25 µM ([1]; Well no.=195): 102% | remaining activity at 3.75 µM ([2]; Well no.=195): 97.6%

N[C@@H]1C=CC=C(C(=O)O)C1 [Gabaculine hydrochloride]
remaining activity at 1.25 µM ([1]; Well no.=13): 105% | remaining activity at 3.75 µM ([2]; Well no.=13): 105%

Nc1nc(=O)[nH]cc1F [Flucytosine (Ancobon)]
remaining activity at 1.25 µM ([1]; Well no.=5335): 94.7% | remaining activity at 3.75 µM ([2]; Well no.=5335): 101%

CCN1CCC[C@H]1CNC(=O)c1c(O)c(Cl)cc(Cl)c1OC [S(+)-Raclopride L-tartrate]
remaining activity at 1.25 µM ([1]; Well no.=1354): 104% | remaining activity at 3.75 µM ([2]; Well no.=1354): 103%

NS(=O)(=O)NCCNc1nonc1/C(=N/O)Nc1ccc(F)c(Br)c1 [Epacadostat]
remaining activity at 1.25 µM ([1]; Well no.=8415): 99.9% | remaining activity at 3.75 µM ([2]; Well no.=8415): 95.7%

COc1cc2c(c(OC)c1OC)-c1c(cc3c(c1OC)OCO3)C[C@H](C)[C@](C)(O)C2 [Gomisin A]
remaining activity at 1.25 µM ([1]; Well no.=5817): 103% | remaining activity at 3.75 µM ([2]; Well no.=5817): 104%

CC(C)=CCC/C(C)=C/CC/C(C)=C/CC/C=C(\C)CC/C=C(\C)CCC=C(C)C [Squalene]
remaining activity at 1.25 µM ([1]; Well no.=7255): 98.6% | remaining activity at 3.75 µM ([2]; Well no.=7255): 96.6%

From paper PMC8286840, “Identifying SARS-CoV-2 antiviral compounds by screening for small molecule inhibitors of Nsp3 papain-like protease” (Biochemical Journal, 2021)
